Reference: the Deep4Chem optical property database
Blank lines part the entries; values can stand above or below the molecule they belong to.

Assay: solvent given as SMILES

Compound: Fc1c(-n2c3ccccc3c3ccccc32)c(F)c(-n2c3ccccc3c3ccccc32)c(-c2nnc(-c3ccccc3)o2)c1-n1c2ccccc2c2ccccc21
absorption maximum (in Cc1ccccc1): 345 nm

Compound: CC1(C)c2ccccc2N(c2cc(C#N)c(C#N)cc2N2c3ccccc3C(C)(C)c3ccccc32)c2ccccc21
absorption maximum (in c1ccc2c(c1)c1ccccc1n2-c1ccc(-c2ccc(-n3c4ccccc4c4ccccc43)cc2)cc1): 494 nm

absorption maximum (in CC#N): 478 nm
Compound: COC(=O)/C=C/c1sc(-c2ccc(N(C)C)s2)c(-c2cn(C)c3ccccc23)c1O

Compound: CCC1=C(C)C2=C(c3cc(C4=C5C(C)=C(CC)C(C)=[N+]5[B-](F)(F)n5c(C)c(CC)c(C)c54)cc(C4=C5C(C)=C(CC)C(C)=[N+]5[B-](F)(F)n5c(C)c(CC)c(C)c54)c3)c3c(C)c(CC)c(C)n3[B-](F)(F)[N+]2=C1C
absorption maximum (in C1CCOC1): 534 nm | absorption maximum (in CC#N): 531 nm | absorption maximum (in CN(C)C=O): 539 nm | absorption maximum (in Cc1ccccc1): 537 nm | absorption maximum (in ClC(Cl)Cl): 538 nm

absorption maximum (in ClCCl): 542 nm
Compound: CCCN1c2ccc(C#CC3=C4C=CC=[N+]4[B-](F)(F)n4cccc43)cc2Sc2cc(C#CC3=C4C=CC=[N+]4[B-](F)(F)n4cccc43)ccc21

absorption maximum (in CO): 312 nm
Compound: O=C(O)c1ccc(-c2nc(-c3ccccc3)c(-c3ccccc3)[nH]2)cc1

absorption maximum (in ClCCl): 410 nm
Compound: CCCCN(CCCC)c1ccc(C#Cc2cc(C#Cc3cc(C(F)(F)F)cc(C(F)(F)F)c3)c(C#Cc3cc(C(F)(F)F)cc(C(F)(F)F)c3)cc2C#Cc2ccc(N(CCCC)CCCC)cc2)cc1

absorption maximum (in ClCCl): 406 nm
Compound: CN(C)c1ccc(C#Cc2cc3ccccc3oc2=O)cc1

absorption maximum (in ClCCl): 665 nm
Compound: CCCCCCOc1ccc(N(c2ccc(OCCCCCC)cc2)c2ccc(-c3sc(-c4ccc(N(c5ccc(OCCCCCC)cc5)c5ccc(OCCCCCC)cc5)cc4)c4nc(C(=O)OCC)c(C(=O)OCC)nc34)cc2)cc1

absorption maximum (in ClCCl): 490 nm
Compound: CCCCCCCCOc1cc(/C=C/c2cc[n+](Cc3ccc(C)cc3)cc2)c(OCCCCCCCC)cc1/C=C/c1cc[n+](Cc2ccc(C)cc2)cc1

Compound: CC1(C)OB(c2ccc3ccc4cccc5ccc2c3c45)OC1(C)C
absorption maximum (in Cc1ccccc1): 378 nm

Compound: O=C(O)c1ccc2ccc3cccc4ccc1c2c34
absorption maximum (in C1CCOC1): 379 nm | absorption maximum (in CC#N): 379 nm | absorption maximum (in CCCCCC): 381 nm | absorption maximum (in CCO): 340 nm | absorption maximum (in CN(C)C=O): 377 nm | absorption maximum (in CO): 339 nm | absorption maximum (in Cc1ccccc1): 382 nm | absorption maximum (in ClCCl): 382 nm

absorption maximum (in ClCCl): 355 nm
Compound: C(=C\c1ncc(-c2ccc(OCc3ccccc3)c(OCc3ccccc3)c2)o1)/c1cccc(N2CCN(c3ccccc3)CC2)c1

absorption maximum (in CC#N): 524 nm | absorption maximum (in CCO): 527 nm | absorption maximum (in CN(C)C=O): 534 nm | absorption maximum (in CO): 530 nm | absorption maximum (in O): 525 nm
Compound: CCNc1cc2oc3c/c(=[NH+]\CC)c(C)cc-3c(-c3ccccc3C(=O)OCC)c2cc1C

Compound: O=C(c1ccc(-n2c3ccccc3c3ccccc32)cc1)c1ccc(-n2c3ccccc3c3ccccc32)cc1
absorption maximum (in Cc1ccccc1): 340 nm

absorption maximum (in CC1CCCCC1): 386 nm | absorption maximum (in CC#N): 386 nm
Compound: C(=C\c1c2ccccc2cc2ccccc12)/c1cccc2ccccc12

Compound: CCCCCCCCCCCCCCCCCCN1C(=O)c2cccc3c(OCCN(C)C)ccc(c23)C1=O
absorption maximum (in CC#N): 363 nm | absorption maximum (in CC(C)=O): 362 nm | absorption maximum (in CCO): 362 nm | absorption maximum (in CCOC(C)=O): 363 nm | absorption maximum (in CCOCC): 359 nm | absorption maximum (in CN(C)C=O): 364 nm | absorption maximum (in ClCCl): 363 nm

absorption maximum (in ClCCl): 540 nm
Compound: CCCN1c2ccccc2Sc2cc(C#CC3=C4C=CC=[N+]4[B-](F)(F)n4cccc43)ccc21

absorption maximum (in CC#N): 338 nm | absorption maximum (in CCCCOCCCC): 338 nm | absorption maximum (in CO): 336 nm
Compound: Nc1cc2ccc3cccc4ccc(c1)c2c34

absorption maximum (in ClCCl): 429 nm
Compound: N#Cc1cc(/C=C/c2ccc(/C=C/c3ccc(N(c4ccccc4)c4ccccc4)cc3)c(C#N)c2)ccc1/C=C/c1ccc(N(c2ccccc2)c2ccccc2)cc1

absorption maximum (in CCO): 379 nm
Compound: CC(C)n1c2cc(O)c(F)cc2c(=O)c2cc(F)c(O)cc21

absorption maximum (in CC#N): 382 nm | absorption maximum (in CCCCCC): 384 nm | absorption maximum (in CO): 368 nm | absorption maximum (in CS(C)=O): 391 nm | absorption maximum (in ClC(Cl)Cl): 373 nm
Compound: CCN(CC)c1ccc(/C=N/Nc2ccc(C#N)cc2)c(O)c1

absorption maximum (in ClC(Cl)Cl): 384 nm
Compound: c1ccc(-c2nc(-c3ccccc3)c(N(c3ccccc3)c3ccccc3)[se]2)cc1

absorption maximum (in ClCCl): 366 nm
Compound: COc1ccc(-c2cnc3cccc(-c4ccc(C(C)=O)cc4)n23)cc1

absorption maximum (in CCOC(C)=O): 435 nm | absorption maximum (in CO): 439 nm
Compound: CN(C)c1ccc(-c2cc3c(ccc4c([N+](=O)[O-])cccc43)c(=O)o2)cc1

absorption maximum (in ClCCl): 400 nm
Compound: [O-][n+]1c(/C=C/c2ccccc2)nc(N2CCOCC2)c2c1CCCC2

absorption maximum (in CCO): 394 nm | absorption maximum (in ClCCl): 397 nm
Compound: c1ccc2c(-c3cncnc3)c3ccccc3c(-c3cncnc3)c2c1

absorption maximum (in ClCCl): 415 nm
Compound: C(=C\c1cc(/C=C/c2ccc(N(c3ccccc3)c3ccccc3)cc2)nc(/C=C/c2ccc(N(c3ccccc3)c3ccccc3)cc2)n1)/c1ccc(N(c2ccccc2)c2ccccc2)cc1

Compound: Cc1ccc(-n2c(-c3cccc4cc[nH]c34)nc3c4ccccc4c4ccccc4c32)cc1
absorption maximum (in Cc1ccccc1): 354 nm

Compound: CC1(C)c2ccccc2N(c2ccc3c(c2)c2ccccc2c2nc4ccccc4nc32)c2ccccc21
absorption maximum (in Cc1ccccc1): 382 nm

absorption maximum (in C1CCOC1): 344 nm | absorption maximum (in CO): 348 nm
Compound: CCOC(=O)C1=CN(c2ccccc2)C=CC1c1ccccc1 (stereo not drawn)

absorption maximum (in C1CCOC1): 422 nm | absorption maximum (in CC#N): 413 nm | absorption maximum (in CN(C)C=O): 426 nm | absorption maximum (in ClC(Cl)Cl): 425 nm | absorption maximum (in c1ccccc1): 426 nm
Compound: CN(C)c1ccc(C#Cc2ccc(C#Cc3ccc(C#Cc4ccccc4C#N)cc3C#N)cc2C#N)cc1

absorption maximum (in ClCCl): 357 nm
Compound: CCn1c2ccccc2c2c(N(c3ccccc3)c3ccccc3)cccc21

Compound: Cc1ccccc1[B-]1(c2ccccc2C)n2nc(C(F)(F)F)cc2-c2c3ccccc3cc[n+]21
absorption maximum (in C1CCCCC1): 374 nm | absorption maximum (in Cc1ccccc1): 380 nm | absorption maximum (in ClCCl): 374 nm

Compound: CCCCC(CC)CN1C(=O)C2=C(c3ccc(-c4ccc(C5=C6C(C)=CC(C)=[N+]6[B-](F)(F)n6c(C)cc(C)c65)cc4)s3)N(CC(CC)CCCC)C(=O)C2=C1c1cccs1 (stereo not drawn)
absorption maximum (in Cc1ccccc1): 580 nm

absorption maximum (in ClCCl): 388 nm
Compound: CCCCCCN1C(=O)c2cccc3c(-c4ccc(-c5cc(-c6ccccc6)nn5-c5ccccc5)s4)ccc(c23)C1=O

absorption maximum (in C1CCCCC1): 478 nm | absorption maximum (in CC#N): 491 nm | absorption maximum (in CCO): 492 nm
Compound: COc1ccc2c(c1)C(=O)c1cc(OC)cc(OC)c1-2

Compound: O=C(/C=C(\O)c1ccc(N2c3ccccc3Oc3ccccc32)cc1)c1ccc(N2c3ccccc3Oc3ccccc32)cc1
absorption maximum (in Cc1ccccc1): 441 nm

absorption maximum (in O): 400 nm
Compound: Fc1ccc2cc3cccc[n+]3cc2c1

absorption maximum (in ClCCl): 316 nm
Compound: Cc1nc(-c2cc(C(F)(F)F)ccc2O)n2c1CCCC2

Compound: CCCCCCN(CCCCCC)c1ccc(C#Cc2ccc(/C=C/c3ccc(-c4ccc(/C=C/c5ccc(C#Cc6ccc(N(CCCCCC)CCCCCC)cc6)cc5)cc4)cc3)cc2)cc1
absorption maximum (in Cc1ccccc1): 400 nm

Compound: c1cc2cc(c1)c1ccc3ccc4ccc(cc4c3c1)c1ccc3ccc4ccc(cc4c3c1)c1cccc2c1
absorption maximum (in Cc1ccccc1): 355 nm

absorption maximum (in CCO): 383 nm
Compound: CC1(C)CC(=O)c2ccccc2N1

Compound: Cc1nn(-c2ccccc2)c2c1c(=O)oc1ccc(-n3c4ccccc4c4cc(-n5c6ccccc6c6ccccc65)ccc43)cc12
absorption maximum (in Cc1ccccc1): 342 nm

Compound: O=C1OC(c2ccccc2)=N/C1=C\c1ccc(N(c2ccc(/C=C3\N=C(c4ccccc4)OC3=O)cc2)c2ccc(/C=C3/N=C(c4ccccc4)OC3=O)cc2)cc1
absorption maximum (in C1CCCCC1): 497.5 nm | absorption maximum (in C1CCOC1): 500 nm | absorption maximum (in C1COCCO1): 502 nm | absorption maximum (in CC1CCCCC1): 498.5 nm | absorption maximum (in CC#N): 498 nm | absorption maximum (in CC(C)=O): 499 nm | absorption maximum (in CC(C)CC(C)(C)C): 492 nm | absorption maximum (in CCCCC): 489 nm | absorption maximum (in CCCCCC): 491 nm | absorption maximum (in CCCCCCC): 495 nm | absorption maximum (in CCCCOCCCC): 497.5 nm | absorption maximum (in CCOC(C)=O): 496 nm | absorption maximum (in CCOCC): 496.5 nm | absorption maximum (in CN(C)C=O): 504 nm | absorption maximum (in CS(C)=O): 506 nm | absorption maximum (in Cc1ccccc1): 505.5 nm | absorption maximum (in ClC(Cl)Cl): 509.5 nm

absorption maximum (in C1CCOC1): 362 nm | absorption maximum (in CO): 366 nm
Compound: CCOC(=O)C1=CN(c2ccccc2)C=C(C(=O)OCC)C1c1ccccc1

absorption maximum (in ClCCl): 329 nm
Compound: CC(C)(C)NC(=O)c1cccc2ccc3c4ccc(F)cc4c4cc(F)ccc4c3c12

Compound: COc1ccc(N2c3ccc4ccccc4c3-c3c4ccccc4cc[n+]3[B-]2(c2ccccc2)c2ccccc2)cc1
absorption maximum (in Cc1ccccc1): 520 nm

Compound: N#Cc1nc2c3ccc(-n4c5ccccc5c5ccccc54)cc3c3cc(-n4c5ccccc5c5ccccc54)ccc3c2nc1C#N
absorption maximum (in Cc1ccccc1): 442 nm

absorption maximum (in ClCCl): 399 nm
Compound: CCn1c2cc(-c3ccc(-c4cccs4)s3)ccc2c2ccc(-c3ccc(-c4cccs4)s3)cc21

Compound: CCC1(CC)c2cc(C#Cc3cc(C#Cc4ccc5c(c4)C(CC)(CC)c4cc(N(c6ccccc6)c6ccccc6)ccc4-5)c4ccc5c(C#Cc6ccc7c(c6)C(CC)(CC)c6cc(N(c8ccccc8)c8ccccc8)ccc6-7)cc(C#Cc6ccc7c(c6)C(CC)(CC)c6cc(N(c8ccccc8)c8ccccc8)ccc6-7)c6ccc3c4c65)ccc2-c2ccc(N(c3ccccc3)c3ccccc3)cc21
absorption maximum (in C1CCCCC1): 500 nm | absorption maximum (in C1CCOC1): 506 nm | absorption maximum (in CCOC(C)=O): 502 nm | absorption maximum (in CN(C)C=O): 506 nm | absorption maximum (in Cc1ccccc1): 503 nm | absorption maximum (in ClC(Cl)Cl): 503 nm | absorption maximum (in ClCCl): 504 nm

absorption maximum (in CC#N): 439 nm
Compound: Cc1cccc2nc3c(=O)n(C)c(=O)nc-3n(C)c12

Compound: Cc1ccc(-n2c3ccccc3c3cc(C(=C(C#N)C#N)c4ccccc4)ccc32)cc1
absorption maximum (in C1CCOC1): 442 nm | absorption maximum (in CC#N): 445 nm | absorption maximum (in CC(C)=O): 442 nm | absorption maximum (in CCOC(C)=O): 442 nm | absorption maximum (in CO): 447 nm | absorption maximum (in CS(C)=O): 453 nm | absorption maximum (in Cc1ccccc1): 447 nm | absorption maximum (in ClC(Cl)Cl): 458 nm

absorption maximum (in ClC(Cl)Cl): 515 nm
Compound: CC1=CC(C)=[N+]2C1=C(C1=C3C(C)=CC(C)=[N+]3[B-](F)(F)n3c(C)cc(C)c31)c1c(C)cc(C)n1[B-]2(F)F
